Experiments:
BRAF [1] = biological target: T1, BRAF (Homo sapiens, UniProt P15056); test: DiscoverX KINOMEscan competition binding assay; conditions: 10 µM; Table 3; read-out: % ctrl. activity at 10 µM, BRAF (DiscoverX), printed as symbol
T1 construct: purchased DiscoverX (KINOMEscan service); host or cells: E. coli BL21-derived host (T7 phage) or HEK-293
Outline: (§1)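 Kinase binding measured by competition of test compound (10 µM) with an immobilized biotinylated ligand on streptavidin beads, 1 h at room temperature. Kinases were T7 phage-tagged or HEK-293-expressed and DNA-tagged. Bound kinase was eluted and quantified by qPCR; values are % of control, lower meaning stronger binding.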

EGFR = biological target: T2, EGFR (Homo sapiens, UniProt P00533); test: DiscoverX KINOMEscan competition binding assay; conditions: compound 10 µM; lower values = higher affinity; below 35% = significant binding
T2 construct: purchased DiscoverX (KINOMEscan service); host or cells: E. coli BL21-derived host (T7 phage) or HEK-293
T2 sequence (P00533 25-1210): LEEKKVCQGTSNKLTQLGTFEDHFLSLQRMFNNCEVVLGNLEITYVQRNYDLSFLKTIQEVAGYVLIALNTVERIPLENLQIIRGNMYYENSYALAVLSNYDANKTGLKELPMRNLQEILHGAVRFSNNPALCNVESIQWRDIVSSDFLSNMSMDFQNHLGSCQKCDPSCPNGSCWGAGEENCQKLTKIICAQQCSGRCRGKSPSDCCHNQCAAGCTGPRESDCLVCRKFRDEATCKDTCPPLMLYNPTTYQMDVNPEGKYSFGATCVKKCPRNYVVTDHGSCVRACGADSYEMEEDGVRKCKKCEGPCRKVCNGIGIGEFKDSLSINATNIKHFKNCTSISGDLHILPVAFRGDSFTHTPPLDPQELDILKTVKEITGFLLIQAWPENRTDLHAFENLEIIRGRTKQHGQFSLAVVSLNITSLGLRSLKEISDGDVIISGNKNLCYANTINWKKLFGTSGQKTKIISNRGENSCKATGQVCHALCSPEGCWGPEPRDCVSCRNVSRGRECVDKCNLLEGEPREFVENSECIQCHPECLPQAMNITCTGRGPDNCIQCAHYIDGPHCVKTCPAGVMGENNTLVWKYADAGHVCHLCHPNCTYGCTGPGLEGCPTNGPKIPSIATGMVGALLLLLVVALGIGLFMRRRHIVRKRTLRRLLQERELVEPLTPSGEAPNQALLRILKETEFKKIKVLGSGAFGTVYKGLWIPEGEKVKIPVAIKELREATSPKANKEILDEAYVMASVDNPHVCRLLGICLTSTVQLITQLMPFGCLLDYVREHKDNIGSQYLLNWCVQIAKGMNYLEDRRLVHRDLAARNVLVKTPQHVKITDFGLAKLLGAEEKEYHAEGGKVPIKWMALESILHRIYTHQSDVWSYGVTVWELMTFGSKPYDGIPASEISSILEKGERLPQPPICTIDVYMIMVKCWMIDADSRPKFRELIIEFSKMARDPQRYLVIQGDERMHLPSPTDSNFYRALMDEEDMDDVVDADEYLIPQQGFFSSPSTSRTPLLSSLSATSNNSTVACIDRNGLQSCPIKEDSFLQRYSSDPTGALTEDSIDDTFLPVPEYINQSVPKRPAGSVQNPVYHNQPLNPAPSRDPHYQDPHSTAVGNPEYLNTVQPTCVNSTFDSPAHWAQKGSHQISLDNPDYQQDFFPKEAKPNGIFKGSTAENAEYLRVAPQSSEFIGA
Outline: as §1

ErbB2 [2] = biological target: T3, ErbB2 (Homo sapiens, UniProt P04626); test: DiscoverX KINOMEscan competition binding assay; conditions: compound 10 µM; lower values = higher affinity; below 35% = significant binding
T3 construct: purchased DiscoverX (KINOMEscan service); host or cells: E. coli BL21-derived host (T7 phage) or HEK-293
T3 sequence (P04626 23-1255): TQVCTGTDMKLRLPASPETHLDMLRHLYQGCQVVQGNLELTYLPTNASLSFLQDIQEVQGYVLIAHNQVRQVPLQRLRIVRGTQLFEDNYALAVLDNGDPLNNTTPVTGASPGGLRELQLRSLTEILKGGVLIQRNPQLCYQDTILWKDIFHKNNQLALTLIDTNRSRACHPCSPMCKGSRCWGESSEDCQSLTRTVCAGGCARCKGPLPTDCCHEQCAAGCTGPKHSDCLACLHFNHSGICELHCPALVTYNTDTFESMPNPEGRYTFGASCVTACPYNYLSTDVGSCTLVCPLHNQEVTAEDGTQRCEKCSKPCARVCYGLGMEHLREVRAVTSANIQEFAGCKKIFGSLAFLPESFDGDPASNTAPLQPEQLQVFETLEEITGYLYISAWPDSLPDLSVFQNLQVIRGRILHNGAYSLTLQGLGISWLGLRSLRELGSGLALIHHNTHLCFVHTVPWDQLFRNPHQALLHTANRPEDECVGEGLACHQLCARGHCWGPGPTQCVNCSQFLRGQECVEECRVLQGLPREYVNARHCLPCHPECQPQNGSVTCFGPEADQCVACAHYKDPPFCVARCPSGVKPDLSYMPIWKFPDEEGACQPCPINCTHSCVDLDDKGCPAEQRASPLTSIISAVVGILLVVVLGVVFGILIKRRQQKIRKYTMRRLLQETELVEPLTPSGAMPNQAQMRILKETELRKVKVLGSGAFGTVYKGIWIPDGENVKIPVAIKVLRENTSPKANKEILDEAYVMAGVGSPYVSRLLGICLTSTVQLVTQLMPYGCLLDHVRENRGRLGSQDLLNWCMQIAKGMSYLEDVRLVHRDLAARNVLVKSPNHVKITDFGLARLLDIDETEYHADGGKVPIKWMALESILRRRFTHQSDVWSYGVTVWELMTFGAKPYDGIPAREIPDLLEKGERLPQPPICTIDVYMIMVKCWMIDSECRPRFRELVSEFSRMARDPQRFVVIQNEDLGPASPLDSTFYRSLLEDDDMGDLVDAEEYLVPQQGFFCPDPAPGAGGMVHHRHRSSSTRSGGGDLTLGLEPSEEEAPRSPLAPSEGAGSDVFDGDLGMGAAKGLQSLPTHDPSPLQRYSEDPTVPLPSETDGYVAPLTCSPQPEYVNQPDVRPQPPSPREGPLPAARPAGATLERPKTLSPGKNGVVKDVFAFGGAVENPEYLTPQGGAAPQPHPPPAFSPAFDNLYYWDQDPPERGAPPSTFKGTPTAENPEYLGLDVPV
Outline: as §1

VEGFR2 = biological target: T4, VEGFR2 (Homo sapiens, UniProt P35968); test: DiscoverX KINOMEscan competition binding assay; conditions: compound 10 µM; lower values = higher affinity; below 35% = significant binding
T4 construct: purchased DiscoverX (KINOMEscan service); host or cells: E. coli BL21-derived host (T7 phage) or HEK-293
Outline: as §1

BRAF [3] = biological target: T1, BRAF; test: Eurofins in vitro kinase inhibition assay; type: biochemical; conditions: 20 µM; Table 3; read-out: % inhib. at 20 µM, BRAF (Eurofins), printed as symbol
Outline: (§2)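 Inhibition at 20 µM was expressed as % of control kinase activity (mean, SD); PI3K used an HTRF PIP3-displacement format, the other kinases a phosphorylation assay with ATP and substrate analog.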

ErbB2 [4] = biological target: T3, ErbB2; test: Eurofins in vitro kinase inhibition assay; type: biochemical
Outline: as §2

PI3K [5] = biological target: T5, PI3K (Homo sapiens, UniProt P42336); test: Eurofins in vitro kinase inhibition assay (HTRF, PIP3 displacement); type: biochemical; design: purchased Eurofins Cerep (contract assay); conditions: compound 20 µM; mean (SD); above 50% significant, 25-50% weak
Outline: as §2
Target sequence in this assay (P42336 whole entry): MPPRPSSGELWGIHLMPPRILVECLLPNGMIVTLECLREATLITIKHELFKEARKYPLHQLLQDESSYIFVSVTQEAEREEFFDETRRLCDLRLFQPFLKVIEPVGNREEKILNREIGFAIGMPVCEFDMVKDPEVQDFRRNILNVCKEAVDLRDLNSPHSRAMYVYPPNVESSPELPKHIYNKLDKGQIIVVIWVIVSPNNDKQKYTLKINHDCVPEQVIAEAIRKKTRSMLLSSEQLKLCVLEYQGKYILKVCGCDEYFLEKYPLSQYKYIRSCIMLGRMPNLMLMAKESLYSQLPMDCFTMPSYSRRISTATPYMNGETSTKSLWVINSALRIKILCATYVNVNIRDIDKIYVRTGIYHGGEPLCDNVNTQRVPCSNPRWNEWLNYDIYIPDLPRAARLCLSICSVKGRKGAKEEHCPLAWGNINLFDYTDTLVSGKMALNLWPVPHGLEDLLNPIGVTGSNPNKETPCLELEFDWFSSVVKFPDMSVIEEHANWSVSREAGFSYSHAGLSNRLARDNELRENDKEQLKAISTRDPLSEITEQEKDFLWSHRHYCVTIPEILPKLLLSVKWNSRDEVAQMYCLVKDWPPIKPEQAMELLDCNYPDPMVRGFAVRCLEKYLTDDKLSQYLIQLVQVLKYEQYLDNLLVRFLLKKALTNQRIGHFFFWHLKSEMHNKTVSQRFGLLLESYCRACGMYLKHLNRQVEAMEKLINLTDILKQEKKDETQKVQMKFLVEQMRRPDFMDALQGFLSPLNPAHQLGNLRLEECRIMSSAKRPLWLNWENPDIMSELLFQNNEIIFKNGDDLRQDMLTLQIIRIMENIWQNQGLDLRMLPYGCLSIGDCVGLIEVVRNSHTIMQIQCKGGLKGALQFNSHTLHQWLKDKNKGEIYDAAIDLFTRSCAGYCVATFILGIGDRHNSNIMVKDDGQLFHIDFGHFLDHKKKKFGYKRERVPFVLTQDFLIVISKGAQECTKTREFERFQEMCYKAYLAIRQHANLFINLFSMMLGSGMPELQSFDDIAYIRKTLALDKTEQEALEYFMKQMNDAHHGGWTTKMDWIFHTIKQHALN
Target sequence in this assay (P27986 whole entry partner): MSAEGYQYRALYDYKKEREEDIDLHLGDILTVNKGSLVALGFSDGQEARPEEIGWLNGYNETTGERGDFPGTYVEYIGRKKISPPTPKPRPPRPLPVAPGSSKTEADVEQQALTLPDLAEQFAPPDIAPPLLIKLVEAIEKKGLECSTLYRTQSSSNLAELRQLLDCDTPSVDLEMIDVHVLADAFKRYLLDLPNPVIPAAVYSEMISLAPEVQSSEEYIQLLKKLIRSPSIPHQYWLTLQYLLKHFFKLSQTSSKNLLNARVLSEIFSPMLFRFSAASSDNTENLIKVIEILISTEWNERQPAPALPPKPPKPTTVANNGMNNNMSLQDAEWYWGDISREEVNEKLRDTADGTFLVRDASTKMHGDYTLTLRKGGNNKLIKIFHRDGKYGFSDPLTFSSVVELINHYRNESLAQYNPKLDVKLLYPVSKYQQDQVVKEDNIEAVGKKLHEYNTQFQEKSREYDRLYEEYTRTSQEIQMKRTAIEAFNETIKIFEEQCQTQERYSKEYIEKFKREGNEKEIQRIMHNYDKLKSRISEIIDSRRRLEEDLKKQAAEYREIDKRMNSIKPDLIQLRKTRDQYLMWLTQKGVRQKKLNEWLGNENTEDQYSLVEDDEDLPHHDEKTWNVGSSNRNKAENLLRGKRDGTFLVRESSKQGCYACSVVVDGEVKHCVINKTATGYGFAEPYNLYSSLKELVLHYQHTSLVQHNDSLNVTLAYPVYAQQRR

PI3K [6] = biological target: T5, PI3K; test: DiscoverX KINOMEscan competition binding assay; design: purchased DiscoverX (KINOMEscan service); host or cells: E. coli BL21-derived host (T7 phage) or HEK-293; conditions: compound 10 µM; lower values = higher affinity; below 35% = significant binding
Outline: as §1
Target sequence in this assay (P42336 whole entry): as the sequence (P42336 whole entry) above

T1 sequence (P15056 whole entry): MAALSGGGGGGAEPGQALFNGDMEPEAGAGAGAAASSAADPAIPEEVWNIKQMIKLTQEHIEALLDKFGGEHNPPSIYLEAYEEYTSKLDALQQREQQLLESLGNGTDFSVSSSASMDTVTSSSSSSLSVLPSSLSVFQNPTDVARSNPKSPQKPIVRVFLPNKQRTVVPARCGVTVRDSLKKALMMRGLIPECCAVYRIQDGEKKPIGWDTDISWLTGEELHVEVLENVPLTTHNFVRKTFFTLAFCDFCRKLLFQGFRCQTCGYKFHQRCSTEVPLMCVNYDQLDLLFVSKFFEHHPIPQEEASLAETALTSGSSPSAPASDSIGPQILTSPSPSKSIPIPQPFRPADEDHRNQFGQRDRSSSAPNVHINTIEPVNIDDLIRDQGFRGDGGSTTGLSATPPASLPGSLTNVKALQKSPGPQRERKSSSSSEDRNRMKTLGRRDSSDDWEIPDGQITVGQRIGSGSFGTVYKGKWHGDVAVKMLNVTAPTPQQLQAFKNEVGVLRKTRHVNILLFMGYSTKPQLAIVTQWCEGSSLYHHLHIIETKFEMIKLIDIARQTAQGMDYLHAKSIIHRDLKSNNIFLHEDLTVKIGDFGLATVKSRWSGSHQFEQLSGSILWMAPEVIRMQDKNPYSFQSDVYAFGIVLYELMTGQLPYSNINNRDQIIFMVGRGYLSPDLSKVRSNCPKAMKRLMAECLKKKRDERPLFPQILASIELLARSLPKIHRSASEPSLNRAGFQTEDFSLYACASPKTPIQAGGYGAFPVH

In the case of `COC(=O)Cc1ccc(Oc2ncnc3sc4c(c23)CC[C@@H](C)C4)cc1` (racemic) [DS39984], the remaining binding at 10 µM (BRAF [1]) is reported as no less than 99%, the “% control, EGFR (DiscoverX)” value (EGFR) is reported as 17 % control and the “% control, ErbB2 (DiscoverX)” value (ErbB2 [2]) is reported as 21 % control. The “% control, VEGFR2 (DiscoverX)” value (VEGFR2) was 99 % control, the inhibition at 20 µM (BRAF [3]) was less than 50% and the inhibition at 20 µM (ErbB2 [4]; 20 µM, Table 3, read-out: % inhib. at 20 µM, ErbB2 (Eurofins), printed as symbol) was less than 50%. For the same compound, the “% inhibition of control activity, ErbB2 (Eurofins)” value (ErbB2 [4]; compound 20 µM, mean (SD), above 50% significant, 25-50% weak) was -1.3 (1.8) % inhibition, the “% inhibition of control activity, PI3K (Eurofins)” value (PI3K [5]) was -6.7 (2.3) % inhibition and the “% control, PI3K (DiscoverX)” value (PI3K [6]) was 100 % control.

— paper PMC7865522, “Analyzing Kinase Similarity in Small Molecule and Protein Structural Space to Explore the Limits of Multi-Target Screening” (Molecules, 2021)
